According to the supplement of paper PMC11061612:

Key:
Experiment in all cases: combination Emax (second highest fraction inhibited in the dose matrix, 72 h); higher = more inhibition; extreme values may be limits of the assay
769-P (Kidney Carcinoma) = tested on: 769-P (Kidney Carcinoma)
In short: (§1)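 Cell lines grown in DMEM/F12 or RPMI with 10% FBS were plated in 1536-well plates and held 24 hours at 37°C, 5% CO2 before 72 hours of exposure to two-drug dose matrices, with DMSO typically at 0.2%. CellTiter-Glo 2.0 luminescence gave viability, which was converted to inhibition. Vehicle wells were set to 0 and blank wells to 1. Combination Emax is the second-highest inhibition in the matrix, and Bliss excess is the observed combination effect minus the expected EA + EB − EA·EB, where EA and EB are the single-agent effects.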

[1] = tested on: A2780 (Ovarian Carcinoma)
In short: as §1

[2] = tested on: CGTH-W-1 (Thyroid Gland Carcinoma)
In short: as §1

EB2 (Burkitt's Lymphoma) = tested on: EB2 (Burkitt's Lymphoma)
In short: as §1

EW-7 (Ewing's Sarcoma) = tested on: EW-7 (Ewing's Sarcoma)
In short: as §1

[3] = tested on: HCC1395 (Breast Carcinoma)
In short: as §1

IM-9 (Non-Cancerous) = tested on: IM-9 (Non-Cancerous)
In short: as §1

[4] = tested on: JHH-2 (Hepatocellular Carcinoma)
In short: as §1

[5] = tested on: JHU-022 (Oral Cavity Carcinoma)
In short: as §1

[6] = tested on: LU-165 (Small Cell Lung Carcinoma)
In short: as §1

[7] = tested on: MDA-MB-436 (Breast Carcinoma)
In short: as §1

[8] = tested on: MHH-ES-1 (Ewing's Sarcoma)
In short: as §1

[9] = tested on: NCI-H1651 (Lung Adenocarcinoma)
In short: as §1

[10] = tested on: NCI-H1703 (Squamous Cell Lung Carcinoma)
In short: as §1

[11] = tested on: NCI-H2087 (Lung Adenocarcinoma)
In short: as §1

[12] = tested on: NCI-H441 (Lung Adenocarcinoma)
In short: as §1

PEO1 (Ovarian Carcinoma) = tested on: PEO1 (Ovarian Carcinoma)
In short: as §1

[13] = tested on: SK-HEP-1 (Hepatocellular Carcinoma)
In short: as §1

[14] = tested on: SW620 (Colorectal Carcinoma)
In short: as §1

WM1552C (Melanoma) = tested on: WM1552C (Melanoma)
In short: as §1

Row | Compound | combination Emax (769-P (Kidney Carcinoma)) | combination Emax [1] | combination Emax [2] | combination Emax (EB2 (Burkitt's Lymphoma)) | combination Emax (EW-7 (Ewing's Sarcoma)) | combination Emax [3] | combination Emax (IM-9 (Non-Cancerous)) | combination Emax [4] | combination Emax [5] | combination Emax [6] | combination Emax [7] | combination Emax [8] | combination Emax [9] | combination Emax [10] | combination Emax [11] | combination Emax [12] | combination Emax (PEO1 (Ovarian Carcinoma)) | combination Emax [13] | combination Emax [14] | combination Emax (WM1552C (Melanoma))
1 | Cc1cc2ncnn2cc1Nc1ncc2c(n1)n(C1CCOCC1)c(=O)n2C [AZD7648] + C=CCn1c(=O)c2cnc(Nc3ccc(N4CCN(C)CC4)cc3)nc2n1-c1cccc(C(C)(C)O)n1 [AZD1775] (first compound max 10 µM, partner max 1 µM) | 0.829 | 0.827 | 0.265 | 0.819 | 0.898 | 0.594 | 0.996 | 0.7 | 0.497 | 0.419 | 0.362 | 0.686 | 0.631 | 0.962 | 0.353 | 0.444 | 0.439 | 0.513 | 0.526 | 0.551
2 | Cc1cc2ncnn2cc1Nc1ncc2c(n1)n(C1CCOCC1)c(=O)n2C [AZD7648] + CCN(CCO)CCCOc1ccc2c(Nc3cc(CC(=O)Nc4cccc(F)c4)[nH]n3)ncnc2c1 [AZD2811] (first compound max 10 µM, 7x7, partner max 1 µM) | 0.416 | 0.686 | 0.338 | 0.473 | 0.596 | 0.363 | 0.943 | 0.446 | 0.4 | 0.288 | 0.321 | 0.54 | 0.264 | 0.688 | 0.215 | 0.309 | 0.262 | 0.395 | 0.248 | 0.43
3 | Cc1cc2ncnn2cc1Nc1ncc2c(n1)n(C1CCOCC1)c(=O)n2C [AZD7648] + CN(C)CCCOc1ccc(-c2ccc3ncc4c(c3c2)n(C2CCOCC2)c(=O)n4C)cn1 [AZD0156] (first compound max 10 µM, 7x7, partner max 1 µM) | 0.264 | 0.609 | 0.228 | 0.484 | 0.682 | 0.366 | 0.456 | 0.491 | 0.3 | 0.346 | 0.289 | 0.269 | 0.194 | 0.521 | 0.146 | 0.324 | 0.184 | 0.23 | 0.229 | 0.29
4 | Cc1cc2ncnn2cc1Nc1ncc2c(n1)n(C1CCOCC1)c(=O)n2C [AZD7648] + COc1cc([C@@H]2c3cc4c(cc3[C@@H](O[C@@H]3O[C@@H]5CO[C@@H](C)O[C@H]5[C@H](O)[C@H]3O)[C@H]3COC(=O)[C@H]23)OCO4)cc(OC)c1O [Etoposide] (first compound max 10 µM, 7x7, partner max 10 µM) | 0.75 | 0.889 | 0.603 | 0.953 | 0.882 | 0.432 | 1 | 0.605 | 0.577 | 0.495 | 0.386 | 0.931 | 0.738 | 0.892 | 0.633 | 0.449 | 0.613 | 0.653 | 0.95 | 0.507
5 | Cc1cc2ncnn2cc1Nc1ncc2c(n1)n(C1CCOCC1)c(=O)n2C [AZD7648] + C[C@@H]1COCCN1C2=NC(=NC(=C2)C3(CC3)[S@](=N)(=O)C)C4=C5C=CNC5=NC=C4 [AZD6738] (first compound max 10 µM, 7x7, partner max 10 µM) | 0.819 | 0.806 | 0.317 | 0.803 | 0.924 | 0.748 | 0.964 | 0.736 | 0.578 | 0.317 | 0.362 | 0.565 | 0.536 | 0.901 | 0.583 | 0.478 | 0.482 | 0.382 | 0.437 | 0.633
6 | Cc1cc2ncnn2cc1Nc1ncc2c(n1)n(C1CCOCC1)c(=O)n2C [AZD7648] + O=C(c1cc(Cc2n[nH]c(=O)c3ccccc23)ccc1F)N1CCN(C(=O)C2CC2)CC1 [Olaparib] (first compound max 10 µM, 7x7, partner max 10 µM) | 0.232 | 0.576 | 0.122 | 0.526 | 0.536 | 0.4 | 0.51 | 0.473 | 0.172 | 0.143 | 0.195 | 0.801 | 0.263 | 0.417 | 0.135 | 0.163 | 0.153 | 0.242 | 0.159 | 0.117
7 | Cc1nc(Nc2ncc(C(=O)Nc3c(C)cccc3Cl)s2)cc(N2CCN(CCO)CC2)n1 [Dasatinib] + CC(=O)Nc1cccc(-n2c(=O)n(C3CC3)c(=O)c3c(Nc4ccc(I)cc4F)n(C)c(=O)c(C)c32)c1 [Trametinib] (first compound max 2 µM, 7x7, partner max 1 µM) | 0.814 | 0.841 | 0.982 | 0.531 | 0.213 | 0.527 | 0.876 | 0.973 | 0.681 | 0.144 | 0.342 | 0.135 | 0.136 | 0.782 | 0.573 | 0.442 | 0.492 | 0.325 | 0.694 | 0.764
8 | COc1cc2ncnc(Nc3ccc(F)c(Cl)c3)c2cc1OCCCN1CCOCC1 [Gefitinib] + CC(C)n1c(=O)n(C)c2cnc3cc(F)c(-c4ccc(OCCCN5CCCCC5)nc4)cc3c21 [AZD1390] (first compound max 10 µM, 7x7, partner max 0.3 µM) | 0.442 | 0.485 | 0 | 0.38 | 0.328 | 0.192 | 0.424 | 0.304 | 0.626 | 0.173 | 0.225 | 0.182 | 0.112 | 0.305 | 0.131 | 0.271 | 0.175 | 0.369 | 0.0744 | 0.12
9 | COc1cc2c(cc1OCCCCCOc1cc3c(cc1OC)C(=O)N1C=C(C)C[C@H]1C=N3)N=C[C@@H]1CC(C)=CN1C2=O [SG3199] + O=C(c1cc(Cc2n[nH]c(=O)c3ccccc23)ccc1F)N1CCN(C(=O)C2CC2)CC1 [Olaparib] (first compound max 0.001 µM, 7x7, partner max 10 µM) | 0.174 | 0.422 | 0.168 | 0.278 | 0.303 | 0.181 | 0.38 | 0.192 | 0.0543 | 0.0933 | 0.121 | 0.703 | 0.274 | 0.0514 | 0.106 | 0.131 | 0.0793 | 0.21 | 0.144 | 0.178
10 | N#Cc1cnc(Nc2cc(NC[C@H]3CNCCO3)c(C(F)(F)F)cn2)cn1 [SRA737] + C=CCn1c(=O)c2cnc(Nc3ccc(N4CCN(C)CC4)cc3)nc2n1-c1cccc(C(C)(C)O)n1 [AZD1775] (first compound max 10 µM, partner max 1 µM) | 0.9 | 0.966 | 0.432 | 0.911 | 0.954 | 0.753 | 1 | 0.652 | 0.528 | 0.598 | 0.274 | 0.667 | 0.713 | 0.972 | 0.645 | 0.446 | 0.48 | 0.23 | 0.587 | 0.751
11 | N#Cc1cnc(Nc2cc(NC[C@H]3CNCCO3)c(C(F)(F)F)cn2)cn1 [SRA737] + CCc1c2c(nc3ccc(O)cc13)-c1cc3c(c(=O)n1C2)COC(=O)[C@]3(O)CC [SN-38] (first compound max 10 µM, 7x7, partner max 0.3 µM) | 0.9 | 0.85 | 0.701 | 0.929 | 0.976 | 0.766 | 1 | 0.724 | 0.759 | 0.647 | 0.549 | 0.975 | 0.835 | 0.929 | 0.918 | 0.663 | 0.746 | 0.802 | 0.955 | 0.638
12 | N#Cc1cnc(Nc2cc(NC[C@H]3CNCCO3)c(C(F)(F)F)cn2)cn1 [SRA737] + Nc1ccn([C@@H]2O[C@H](CO)[C@@H](O)C2(F)F)c(=O)n1 [Gemcitabine] (first compound max 10 µM, 7x7, partner max 0.3 µM) | 0.851 | 0.92 | 0.846 | 0.945 | 1 | 0.725 | 1 | 0.708 | 0.685 | 0.544 | 0.579 | 0.986 | 0.735 | 0.952 | 0.585 | 0.58 | 0.728 | 0.724 | 0.889 | 0.796
13 | N#Cc1cnc(Nc2cc(NC[C@H]3CNCCO3)c(C(F)(F)F)cn2)cn1 [SRA737] + O=c1[nH]cc(F)c(=O)[nH]1 [5-Fluorouracil] (first compound max 10 µM, 7x7, partner max 20 µM) | 0.756 | 0.72 | 0.646 | 0.88 | 0.814 | 0.653 | 1 | 0.623 | 0.513 | 0.413 | 0.409 | 0.697 | 0.479 | 0.885 | 0.309 | 0.381 | 0.458 | 0.416 | 0.422 | 0.728
